# Measurements as given in patent publication US20080234300A1, “Pyrimido[5,4-c] Quinoline-2, 4-Diamine Derivatives and Methods of Use Thereof” (WYETH, priority 2007, published 2008).
# Target: T1, PDK-1 (Homo sapiens, UniProt O15530)
# T1 sequence (O15530 1-556): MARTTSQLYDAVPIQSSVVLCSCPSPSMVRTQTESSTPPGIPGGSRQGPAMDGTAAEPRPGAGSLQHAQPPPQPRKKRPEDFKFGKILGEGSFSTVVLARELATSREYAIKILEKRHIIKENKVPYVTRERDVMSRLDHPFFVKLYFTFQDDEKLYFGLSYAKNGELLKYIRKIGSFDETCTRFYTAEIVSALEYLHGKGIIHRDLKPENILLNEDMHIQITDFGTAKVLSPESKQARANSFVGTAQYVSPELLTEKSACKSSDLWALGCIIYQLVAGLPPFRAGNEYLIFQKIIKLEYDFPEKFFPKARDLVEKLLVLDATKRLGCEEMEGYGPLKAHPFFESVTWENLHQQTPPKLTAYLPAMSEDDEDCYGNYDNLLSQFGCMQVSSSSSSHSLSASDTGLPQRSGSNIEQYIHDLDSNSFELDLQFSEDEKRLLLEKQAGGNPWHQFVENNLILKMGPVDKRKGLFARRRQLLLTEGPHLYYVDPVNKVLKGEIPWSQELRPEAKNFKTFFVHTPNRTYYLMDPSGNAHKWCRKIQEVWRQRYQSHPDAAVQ
# Assay: PDK-1 kinase inhibition ELISA assay (phosphorylation of His6-tagged SGK1 S422D by PDK-1)
# Format: biochemical
# Settings: in vitro ELISA; phosphorylation of His6-tagged SGK1 (S422D) on Thr256 by PDK-1, 20 minutes, chemiluminescent detection
# Experimental: The ability of an illustrative Pyrimido[5,4-c]quinoline-2,4-diamine Derivative to inhibit PDK-1 in vitro can be determined using an ELISA assay as described in Kobayashi et al., Biochem. J. 339:319-328 (1999) and Park et al., EMBO J. 18:3024-3033 (1999).
# In an in vitro assay, His6-tagged SGK1 with S422D mutation (formerly Upstate Biotech, now Millipore) on Thr256 is allowed to be phosphorylated by PDK-1 in the presence of a Pyrimido[5,4-c]quinoline-2,4-diamine Derivative. After 20 minutes, the reaction is quenched via the addition of urea. The His6-tagged SGK1 is then bound to 96 well Ni-NTA HisSorb plates (Quiagen, Inc.) and phosphorylated SGK1 is quantitatively detected using rabbit derived anti-phospho SGK antibody (Cell Signaling Technology) as the primary antibody and horseradish peroxidase (HRP)— coupled anti-rabbit antibody (formerly Zymed, now Invitrogen) as the secondary antibody. HRP is then detected using a chemiluminescent substrate (Pierce Chemical Co.).
# IC50 values of illustrative Pyrimido[5,4-c]quinoline-2,4-diamine Derivatives, shown in Table 4, are calculated using LSW Data Analysis package add-in for Excel (Microsoft).
row,SMILES,IC50
1,"CCOc1cc2ncc3c(N)nc(N4CCOCC4)nc3c2cc1OCC [Ia-4, 8,9-diethoxy-2-morpholin-4-ylpyrimido[5,4-c]quinolin-4-amine]",55.7 µM
2,"COCCOc1cc2ncc3c(N)nc(N4CCOCC4)nc3c2cc1OC [Ia-5, 9-methoxy-8-(2-methoxyethoxy)-2-morpholin-4-ylpyrimido[5,4-c]quinolin-4-amine]",> 200 µM
3,"COCCOc1cc2ncc3c(N)nc(N4CCN(C)CC4)nc3c2cc1OC [Ia-7, 9-methoxy-8-(2-methoxyethoxy)-2-(4-methylpiperazin-1-yl)pyrimido[5,4-c]quinolin-4-amine]",> 200 µM
4,"CCNc1nc(N)c2cnc3cc(OCCOC)c(OC)cc3c2n1 [Ia-9, N2-ethyl-9-methoxy-8-(2-methoxyethoxy)pyrimido[5,4-c]quinoline-2,4-diamine]",> 200 µM
5,"COCCOc1cc2ncc3c(N)nc(N4CCC5(CC4)OCCO5)nc3c2cc1OC [Ia-10, 2-(1,4-dioxa-8-azaspiro[4.5]dec-8-yl)-9-methoxy-8-(2-methoxyethoxy)pyrimido[5,4-c]quinolin-4-amine]",50.5 µM
6,"COCCOc1cc2ncc3c(N)nc(N4CCC(=O)CC4)nc3c2cc1OC [Ia-13, 1-[4-amino-9-methoxy-8-(2-methoxyethoxy)pyrimido[5,4-c]quinolin-2-yl]piperidin-4-one]",> 200 µM
7,"COCCOc1cc2ncc3c(N)nc(N4CCN(c5ccccc5)CC4)nc3c2cc1OC [Ia-18, 9-methoxy-8-(2-methoxyethoxy)-2-(4-phenylpiperazin-1-yl)pyrimido[5,4-c]quinolin-4-amine]",111 µM
8,"COCCOc1cc2ncc3c(N)nc(N4CCOc5ccccc5C4)nc3c2cc1OC [Ia-20, 2-(2,3-dihydro-1,4-benzoxazepin-4(5H)-yl)-9-methoxy-8-(2-methoxyethoxy)pyrimido[5,4-c]quinolin-4-amine]",83.1 µM

# The next compounds have a lower IC50 than those just listed; values first:
row,IC50,SMILES
1,36.3 µM,"COCCOc1cc2ncc3c(N)nc(N4CCC(O)C4)nc3c2cc1OC (stereo not shown) [Compound Ia-6, 1-[4-Amino-9-methoxy-8-(2-methoxyethoxy)pyrimido[5,4-c]quinolin-2-yl]pyrrolidin-3-ol]"
2,12.2 µM,"COc1cc2ncc3c(N)nc(N)nc3c2cc1OC [Ia-1, 8,9-dimethoxypyrimido[5,4-c]quinoline-2,4-diamine]"
3,18 µM,"CCOc1cc2ncc3c(N)nc(N)nc3c2cc1OCC [Ia-2, 8,9-diethoxypyrimido[5,4-c]quinoline-2,4-diamine]"
4,9.33 µM,"COCCOc1cc2ncc3c(N)nc(N(C)C)nc3c2cc1OC [Ia-8, 9-methoxy-8-(2-methoxyethoxy)-N2,N2-dimethylpyrimido[5,4-c]quinoline-2,4-diamine]"
5,6.55 µM,"COCCOc1cc2ncc3c(N)nc(N4CCCC4)nc3c2cc1OC [Ia-14, 9-methoxy-8-(2-methoxyethoxy)-2-pyrrolidin-1-ylpyrimido[5,4-c]quinolin-4-amine]"
6,2.15 µM,"COCCOc1cc2ncc3c(N)nc(N4CCC[C@@H]4COC)nc3c2cc1OC [Ia-15, 9-methoxy-8-(2-methoxyethoxy)-2-[(2R)-2-(methoxymethyl)pyrrolidin-1-yl]pyrimido[5,4-c]quinolin-4-amine]"
7,39.6 µM,"COCCOc1cc2ncc3c(N)nc(N4CCC[C@H]4COC)nc3c2cc1OC [Ia-16, 9-methoxy-8-(2-methoxyethoxy)-2-[(2S)-2-(methoxymethyl)pyrrolidin-1-yl]pyrimido[5,4-c]quinolin-4-amine]"
8,5.43 µM,"COCCOc1cc2ncc3c(N)nc(NC4CCCCC4)nc3c2cc1OC [Ia-17, N2-cyclohexyl-9-methoxy-8-(2-methoxyethoxy)pyrimido[5,4-c]quinoline-2,4-diamine]"
